Laboratory results reported in patent US7935532B2, “DWF4 polynucleotides, polypeptides and uses thereof” (Arizona Board of Regents for and on behalf of Arizona State …, priority 1999, dated 2011).

Columns and labels:
Type in all cases: in vivo, Arabidopsis thaliana
[1] = tested on: wild-type and dwf4 seedlings; test: Auxin response of seedlings on vertically oriented agar plates with 2,4-D
Method: Gibberellic acid (GA) response was assayed on plants grown individually in 5.7-cm pots. Once inflorescences reached 1 to 2 mm in height, they were sprayed weekly with 1 mM GA3 (Sigma). Control plants were sprayed with water. One week after the third spraying, plants were collected, and the length of the main stem was measured between the top of the rosette and the base of the most distal pedicel; 13 to 18 plants of each line were measured per treatment. Auxin response was tested by growing seedlings for 10 days under 16 hr of light on vertically oriented agar plates containing various concentrations of 2,4-D (Gibco, Grand Island, N.Y.). Genetic interaction with the hy2 mutation was tested by growing seedlings under continuous light for 7 days. Brassinolide (BL) response was determined in liquid culture, as described by Clouse et al. (1993) supra, except that three or four seedlings were grown in each well of a 24-well culture plate for 7 days. Measurements were taken for 10 to 20 seedlings for each genotype and condition, under a dissection microscope fitted with an ocular micrometer.
Auxin can also stimulate cell elongation. This effect is especially visible in young seedlings (Klee and Estelle, supra). […] Higher concentrations of auxin were inhibitory for both wild-type and dwf4 seedlings, and lower concentrations had no effect. In view of the inhibition of root growth, it is clear that dwf4 is not auxin resistant; rather, its elongation response is compromised.

dwf4 seedlings = test: Feeding of BR biosynthetic intermediates to dwf4 seedlings in liquid media (rescue, dose-response); details: for rescue of the light-grown dwf4 phenotype: liquid media; for response of dwf4 seedlings in dose-response experiment in the dark: dark-grown, 6-oxoCN 10^−8 to 3×10^−6 M, 6-deoxoCT high concentrations
Method: In view of the results described above, we hypothesized that DWF4 mediates one or more of several steroid hydroxylation steps in the BR biosynthetic pathway. To test this, dwf4 was grown on all of the available biosynthetic intermediates in the BR biosynthetic pathways and examined to ascertain which intermediates could rescue the dwarf phenotype. In addition to the intermediates belonging to the early C-6 oxidation and late C-6 oxidation pathways (Choi et al. (1997), supra), 22α-hydroxycampesterol (22-OHCR), 6α-hydroxycastasterone (6-OHCT) (Takatsuto et al. (1997) J. Chem. Res. (synop.) 11:418-419), and […] (S. Takatsuto, T. Watanabe, T. Noguchi, and S. Fujioka, unpublished data) were synthesized and tested.
Germinated seedlings were transferred to media supplemented with one of the intermediates or BL to pinpoint the step catalyzed by DWF4. […] In addition, the rescued seedlings were less green than the dwarfs. These experiments were conducted in liquid media. Feeding experiments performed in the dark yielded similar results.
However, on CT the overall morphology of dwf4 was essentially rescued to wild-type phenotype at 3×10^−7 M and higher, whereas with 6-deoxoCT, rescue occurred with as little as 10^−7 M and may have even been inhibitory at higher concentrations. Of particular interest is the more dramatic response of the epicotyls versus the smaller response of the hypocotyls to CT. This same phenomenon was true for seedlings treated with >10^−7 M 6-deoxoCT.
A higher concentration of CT for dark-grown seedlings, compared with light-grown seedlings, 3×10^−6 M (FIG. 5B), was required to convert the hypocotyl to a length similar to that of the wild type.

6-week-old dwf4 plants = test: Treatment of soil-grown mature dwf4 plants with BR intermediates and BL (pedicel elongation); details: 10^−6 M, compared with CT and TE at 10^−5 M
Method: To determine whether the results of the seedling feeding experiments could be applicable to soil-grown mature plants, 6-week-old dwf4 plants were treated with BR intermediates and BL. Concentrations of applied intermediates were adjusted empirically to optimize responses. Consistent with the results obtained from the seedlings experiments, only 22α-hydroxylated compounds can rescue the dwf4 phenotype. The elongation response was only observed in the young tissues of the inflorescence, regardless of whether the BRs were applied locally or sprayed over the entire plant. In contrast to the striking elongation of the peduncles and pedicels, fertility was not restored by BR treatment. The sterility in dwf4 is hypothesized to be mechanical, which means that the filaments are shorter than the carpels such that the pollen is shed onto the ovary walls rather than onto the stigmatic surface. In fact, if dwf4 plants are hand pollinated using […], fertility increases.

[2] = light-grown seedlings, dose-response

Row | SMILES | rescue of the light-grown dwf4 phenotype (dwf4 seedlings; light-grown seedlings) | sensitivity of dwf4 pedicels (6-week-old dwf4 plants) | response of dwf4 seedlings in dose-response experiment in the dark (dwf4 seedlings) | also measured
1 | O=C(O)COc1ccc(Cl)cc1Cl [2,4-D] |  |  |  | hypocotyl elongation ([1]; concentrations lower than 10^−8 M): no effect; root growth ([1]; wild-type and dwf4 seedlings, 10 days, all concentrations assayed): inhibition of root growth was evident; hypocotyl elongation ([1]; wild-type and dwf4 seedlings, concentrations higher than 10^−8 M): inhibitory
2 | CC(C)[C@H](C)[C@@H](O)[C@H](O)[C@@H](C)[C@H]1CC[C@H]2[C@@H]3C[C@H](O)[C@H]4C[C@H](O)[C@H](O)C[C@]4(C)[C@H]3CC[C@]12C [6-OHCT, 6α-hydroxycastasterone] | rescued |  |  | 
3 | CC(C)[C@H](C)C[C@H](O)[C@@H](C)[C@H]1CC[C@H]2[C@@H]3CC[C@H]4C[C@@H](O)CC[C@]4(C)[C@H]3CC[C@]12C [6-deoxoCT, 6-deoxocathasterone] | rescued | more sensitive | caused dramatic elongation but were less effective at rescuing dwf4 hypocotyls to wild-type phenotype | concentration at which dwf4 overall morphology is rescued to wild-type phenotype (dwf4 seedlings; [2]): ≥ 10^−7 M; concentrations at which seedlings displayed inhibition in hypocotyl and root elongation and cotyledon and leaf expansion (dwf4 seedlings; [2]): > 10^−7 M
4 | CC(C)[C@H](C)[C@@H](O)[C@H](O)[C@@H](C)[C@H]1CC[C@H]2[C@@H]3CC[C@H]4C[C@@H](O)CC[C@]4(C)[C@H]3CC[C@]12C [6-deoxoTE, 6-deoxoteasterone] |  | more sensitive |  | 
5 | CC(C)[C@H](C)CC[C@@H](C)[C@H]1CC[C@H]2[C@@H]3CC(=O)[C@H]4C[C@@H](O)CC[C@]4(C)[C@H]3CC[C@]12C [6-oxoCN, 6-oxocampestanol] |  |  | failed to respond | response of dwf4 seedlings in dose-response test (dwf4 seedlings; light-grown, even at high concentrations (3×10^−6 M)): failed to respond
